Assay [1] deals with S. aureus ATCC 13709. Briefly: MIC, S. aureus ATCC 13709. Type of assay: cell-based. To be noted: Alamar Blue read after overnight incubation at 35° C.; for MIC: Staphylococcus aureus, ATCC13709, S. aureus, read-out: MIC Sa; for MIC Sa: S. aureus.
For assay [2], the system named is E. coli ATCC 25922. Kind of assay: MIC, E. coli ATCC 25922. It is filed as cell-based. Conditions: Alamar Blue read after overnight incubation at 35° C.; for MIC: Escherichia coli, ATCC25922, E. coli, read-out: MIC Ec; for MIC Ec: E. coli.

Converted amounts (≈) assume the structure as drawn.

`CNc1cccc2c1[nH]c1nc(Oc3cncnc3)cc(N3CCC(N)CC3)c12` [Compound 3.64]: the minimum inhibitory concentration (MIC) in assay [1] was 16 µg/mL (≈ 41.1 µM); in assay [2], 64 µg/mL (≈ 164 µM).

Take `CNc1cccc2c1[nH]c1nc(Oc3cncnc3)cc(N3CCC4(CNC4)C3)c12` [Compound 3.65]: the MIC in assay [1] worked out at 8 µg/mL (≈ 19.9 µM); in assay [2] it was 64 µg/mL (≈ 159 µM).

With `CNc1cccc2c1[nH]c1nc(Oc3cncc(F)c3)cc(N3CCC4(CNC4)C3)c12` [Compound 3.66], the values for the MIC in assay [1] and in assay [2] were 8 µg/mL (≈ 19.1 µM) and greater than 32 µg/mL, respectively.

As to `CNc1cccc2c1[nH]c1nc(Oc3cncnc3)cc(N3CC4(CCNC4)C3)c12` [Compound 3.67], the minimal inhibitory concentration (MIC) turned out to be 16 µg/mL (≈ 39.9 µM) in assay [1] and 64 µg/mL (≈ 159 µM) in assay [2].

On to `CNc1cc(F)cc2c1[nH]c1nc(Oc3cncnc3)nc(N3CC4C(N)C4C3)c12` (stereo not drawn) [Compound 4.001], for which, in assay [1], the “MIC Sa” value was no more than 0.5 µg/mL. For the same compound, the “MIC Ec” value in assay [2] was no more than 0.5 µg/mL.

`CNc1cc(F)cc2c1[nH]c1nc(Oc3cncnc3)nc(N3CC(N)C4(CC4)C3)c12` (stereo not drawn) [Compound 4.002]: in assay [1], the “MIC Sa” value is no more than 0.5 µg/mL. For the same compound, the “MIC Ec” value in assay [2] is no more than 0.5 µg/mL.

As for `CNc1cc(F)cc2c1[nH]c1nc(Oc3cncnc3)nc(N3CCC4(CC4N)C3)c12` (stereo not drawn) [Compound 4.003], the “MIC Sa” value in assay [1] is no more than 0.5 µg/mL. For the same compound, the “MIC Ec” value in assay [2] is no more than 0.5 µg/mL.

Regarding `CNc1cc(F)cc2c1[nH]c1nc(Oc3cncnc3)nc(N3CC4C(CN)C4C3)c12` (stereo not drawn) [Compound 4.004], the “MIC Sa” value in assay [1] is no more than 0.5 µg/mL. In addition, in assay [2], the “MIC Ec” value was found to be 2 µg/mL (≈ 4.76 µM).

Turning to `CNc1cc(F)cc2c1[nH]c1nc(Oc3cncnc3)nc(N3CC4CC4(N)C3)c12` (stereo not drawn) [Compound 4.005], in assay [1], the “MIC Sa” value was no more than 0.5 µg/mL. Also, in assay [2], the “MIC Ec” value is no more than 0.5 µg/mL.

Turning to `CNc1cc(F)cc2c1[nH]c1nc(Oc3cncnc3)nc(N3CC4C(N)C4C3)c12` (stereo not drawn) [Compound 4.010], the “MIC Sa” value in assay [1] was no more than 0.5 µg/mL. Also, in assay [2], the “MIC Ec” value is no more than 0.5 µg/mL.

As for `CNc1cc(F)cc2c1[nH]c1nc(Oc3cncnc3)nc(N3CC4CCC(N)C4C3)c12` (stereo not drawn) [Compound 4.016], in assay [1], the “MIC Sa” value is no more than 0.5 µg/mL. Besides, the “MIC Ec” value in assay [2] was 1 µg/mL (≈ 2.3 µM).

Turning to `CNc1cc(F)cc2c1[nH]c1nc(Oc3cncnc3)nc(N3CCC(C4(N)CC4)C3)c12` (stereo not drawn) [Compound 4.017], the “MIC Sa” value in assay [1] was no more than 0.5 µg/mL. In assay [2], the “MIC Ec” value was no more than 0.5 µg/mL.

As to `CNc1cc(F)cc2c1[nH]c1nc(Oc3cncnc3)nc(N3CC4CCNC4C3)c12` (stereo not drawn) [Compound 4.020], the “MIC Sa” value in assay [1] was no more than 0.5 µg/mL. In addition, in assay [2], the “MIC Ec” value was no more than 0.5 µg/mL.

For the compound `CNc1cc(F)cc2c1[nH]c1nc(Oc3cncnc3)nc(N3CC(C)C(CN)C3)c12` (stereo not drawn) [Compound 4.023], the “MIC Sa” value in assay [1] was no more than 0.5 µg/mL. Further, the “MIC Ec” value in assay [2] is 1 µg/mL (≈ 2.37 µM).

With `CNc1cc(F)cc2c1[nH]c1nc(Oc3cncnc3)nc(N3CCCC(C)(N)C3)c12` (stereo not drawn) [Compound 4.024], the “MIC Sa” value in assay [1] is no more than 0.5 µg/mL. In assay [2], the “MIC Ec” value amounted to 2 µg/mL (≈ 4.73 µM).

Take `CNc1cc(F)cc2c1[nH]c1nc(Oc3cncnc3)nc(N3C4CCC3CC(N)C4)c12` (stereo not drawn) [Compound 4.025]: the “MIC Sa” value in assay [1] was no more than 0.5 µg/mL. Moreover, the “MIC Ec” value in assay [2] came out at 2 µg/mL (≈ 4.6 µM).

Take `CNc1cc(F)cc2c1[nH]c1nc(Oc3cncnc3)nc(N3CC4CCC(N)C4C3)c12` (stereo not drawn) [Compound 4.026]: the “MIC Sa” value in assay [1] was no more than 0.5 µg/mL. The “MIC Ec” value in assay [2] is no more than 0.5 µg/mL.

Turning to `CNc1cc(F)cc2c1[nH]c1nc(Oc3cncnc3)nc(N3CCC(C4(N)CC4)C3)c12` (stereo not drawn) [Compound 4.027], the “MIC Sa” value in assay [1] is no more than 0.5 µg/mL. In assay [2], the “MIC Ec” value came to 1 µg/mL (≈ 2.3 µM).

Take `CNc1cc(F)cc2c1[nH]c1nc(Oc3cncnc3)nc(N3CC4C[C@@H](N)C4C3)c12` (stereo partly drawn) [Compound 4.028]: the “MIC Sa” value in assay [1] is no more than 0.5 µg/mL. In addition, the “MIC Ec” value in assay [2] is no more than 0.5 µg/mL.

As to `CNc1cc(F)cc2c1[nH]c1nc(Oc3cncnc3)nc(N3CC(N)CC3C)c12` (stereo not drawn) [Compound 4.029], the “MIC Sa” value in assay [1] is 4 µg/mL (≈ 9.79 µM). The “MIC Ec” value in assay [2] was found to be 16 µg/mL (≈ 39.2 µM).

Consider `CNc1cc(F)cc2c1[nH]c1nc(Oc3cncnc3)ncc12` [Compound 4.031], for which the “MIC Sa” value in assay [1] amounted to 2 µg/mL (≈ 6.45 µM). Besides, the “MIC Ec” value in assay [2] was greater than 16 µg/mL.

Regarding `CNc1cc(F)cc2c1[nH]c1nc(Oc3cncnc3)nc(N3CCC4(CCNC4)C3)c12` (stereo not drawn) [Compound 4.033], the “MIC Sa” value in assay [1] was no more than 0.5 µg/mL. Further, in assay [2], the “MIC Ec” value amounted to 4 µg/mL (≈ 9.21 µM).

`CNc1cc(F)cc2c1[nH]c1nc(Oc3cnc4cccnc4c3)nc(N3CC4CC4(N)C3)c12` (stereo not drawn) [Compound 4.036]: in assay [1], the “MIC Sa” value was no more than 0.5 µg/mL. Further, in assay [2], the “MIC Ec” value is no more than 0.5 µg/mL.

As for `CNc1cc(F)cc2c1[nH]c1nc(Oc3cnc4cccnc4c3)nc(N3CC4C(N)C4C3)c12` (stereo not drawn) [Compound 4.037], the “MIC Sa” value in assay [1] is no more than 0.5 µg/mL. Also, in assay [2], the “MIC Ec” value was no more than 0.5 µg/mL.

For the origin of these results see US10865216B2, “Tricyclic Gyrase inhibitors” (MERCK SHARP & DOHME CORP., priority 2012, dated 2020).
